Source: patent US20230348454A1, “COMPOUNDS AS MODULATORS OF BIS-PHOSPHOGLYCERATE MUTASE FOR THE TREATMENT OF SICKLE CELL DISEASE” (Genzyme Corporation, priority 2020, published 2023)
Read-outs that look alike come from different tables or passages of the source.

Legend:
hBPGM = biological target: T1, hBPGM (Homo sapiens, UniProt P07738); test: BPGM synthase assay; type: biochemical
T1 sequence (P07738 1-259): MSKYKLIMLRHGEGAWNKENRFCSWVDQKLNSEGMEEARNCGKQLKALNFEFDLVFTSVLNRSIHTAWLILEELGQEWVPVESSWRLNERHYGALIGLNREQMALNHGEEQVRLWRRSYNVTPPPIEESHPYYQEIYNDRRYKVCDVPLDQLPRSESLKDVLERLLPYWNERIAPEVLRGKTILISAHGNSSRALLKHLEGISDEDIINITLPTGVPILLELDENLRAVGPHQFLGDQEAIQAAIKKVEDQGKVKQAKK
Experimental: The following materials were used in this assay: deionized water; Bisphosphoglycerate mutase (BPGM; Standard Buffer: 50 mM Tris, 0.01% Tween 20, pH 7.4); BPGM Reaction Buffer (50 mM Tris, 0.01% Tween 20, 3.23 mM KH2PO4, pH 7.4); dithiothreitol (DTT; Stock solution: 100 mM in Standard Buffer); 384-Well Black Assay Plate (Corning, P/N 3575); DMSO; BPGM Stock Solution (500 nM in BPGM Standard Buffer); Glyceraldehyde 3-phosphate dehydrogenase (GAPDH; Stock Solution: 40 U/mL in 20 mM Tris-HCL Buffer with 20% Glycerol, 1 mM EDTA, 1 mM DTT); Glyceraldehyde 3-phosphate (GAP; Stock Solution: 20 mM in BPGM Standard Buffer); 3-PG Stock Solution (500 μM in BPGM Standard Buffer); Nicotinamide adenine dinucleotide (NAD; Stock Solution: 50 mM in BPGM Standard Buffer); Koningic Acid (1 mM Stock in DMSO); Resazurin Stock Solution (10 mM in DMSO); Diaphorase Stock Solution (40 U/mL in BPGM Standard Buffer); DTT Reaction Buffer (1 mM DTT in BPGM Reaction Buffer); Enzyme Solution (5 nM BPGM, 0.4 U/mL GAPDH in DTT Reaction Buffer); GAPDH Solution (0.4 U/mL GAPDH in DTT Reaction Buffer); Substrate Solution (2 mM NAD, 20 μM 3PG, 800 μM GAP in DTT Reaction Buffer); and Resazurin Solution (5 U/mL Diaphorase, 500 μM Resazurin in BPGM Standard Buffer).
To the assay plate was added Enzyme Solution (20 uL) to columns 2-22 and 24 of the assay plate. To columns 1 and 23 was added GAPDH Solution (20 uL). A separate compound plate was prepared at the desired concentrations and all wells were normalized with 5% DMSO. The compound plate was incubated for 30 minutes at RT. Next, the substrate solution (20 μL) was dispensed to all reaction wells and the plate was incubated for 60 minutes at RT. Koningic acid (1 μL) was added and the plate was incubated for 10 minutes at RT. During this time period, the NADH fluorescence was read at ex: 360/em: 460. Next, Resazurin Solution (10 μL) was added to all reaction wells and the plate was incubated for 30 minutes at RT. The resorufin fluorescence was then read at ex:544/em:590.

[1] = biological target: T2, human Bisphosphoglycerate mutase (hBPGM) (Homo sapiens, UniProt P07738); test: BPGM phosphatase assay; type: biochemical
T2 sequence (P07738 1-259): T1 sequence (P07738 1-259)
Experimental: The following materials were used in this assay: Tris buffer (50 mM Tris, 0.01% Tween 20, pH 7.4); cyclohexylammonium salt of 2,3-BPG (stock solution of 500 mM in ultapure distilled water; human Bisphosphoglycerate mutase (hBPGM; stock solution of 110 μM in Standard Buffer); 3-Phosphoglyceric acid (3-PG; stock solution of 100 mM in ultrapure distilled water); 384-Well Polystyrene Plates (Fisherbrand™, Catalog No.: 12-566-625); BIOMOL GREEN REAGENT (Enzo life sciences, BML-AK111-0250); and 1 mM DMSO stock of exemplary compounds.
A 3-PG enzyme mix solution (final enzyme concentration 62.5 nM, 3-PG concentration at 50 µM, 14.5 uL) was added to onto a 384-well clear plate. Solutions of the test compounds were then added to the plate and the DMSO content was normalized across the plate. The plate was incubated at RT for 15 min. Next, the substrate 2,3-BPG (5 μL) was added to all the wells, and the plate was sealed and incubated for 24 hr at RT. After incubation, BIOMOL green dye (40 μL) was added to all the wells, the plate was shaken to mix, and the plate was incubated at RT for 20-30 min. Absorbance measurements were recorded at 620 nm.

[2] = Table 6, read-out: huBPGM: synthase Enzyme IC50
[3] = Table 6, read-out: huBPGM: phosphatase Enzyme EC50
[4] = Table 4, read-out: hBPGM Phosphatase EC50

Compound | IC50 (hBPGM; [2]) [nM] | EC50 [1, 3] [nM] | EC50 [1, 4] [nM] | IC50 (hBPGM; Table 3, read-out: hBPGM Synthase IC50) [nM]
Cc1nc(COc2ccccn2)sc1-c1csc(-c2cc(F)c3[nH]nnc3c2)n1 [Example 100] | 310 | 57 |  | 
Cc1cnc(OCc2nc(C)c(-c3cccc(-c4cc(F)c5nn[nH]c5c4F)n3)s2)nc1 [compound 8] | 17 | 40 | 40 | 
Cc1nc(CNc2ncccn2)sc1-c1cccc(-c2cc(F)c3nn[nH]c3c2F)n1 [Example 126] | 21 | > 25000 |  | 
Cc1nc(COc2ncccn2)sc1-c1cccc(-c2cc(F)c(O)c(F)c2F)n1 [Example 172] | 280 | 240 |  | 
Cc1nc(COc2ncccn2)sc1-c1cccc(-c2cc(F)c3[nH]nnc3c2)n1 [Example 141] | 54 | 57 |  | 
Cc1nc(COC(C)C(=O)N(C)C)sc1-c1csc(-c2cc(F)c(O)c(F)c2F)n1 (stereo not drawn) [Example 98] | 2200 | 380 |  | 
Cc1nc(COc2ncccn2)sc1-c1cccc(-c2ccc(-c3noc(=O)[nH]3)cc2)n1 [compound 15] | 140 | 170 | 170 | 
Cc1nc(COc2ncc(Cl)cn2)sc1-c1cccc(-c2cc(F)c3nn[nH]c3c2)n1 [Example 140] |  | 30 |  | 
Cc1nc(CNc2ncccn2)sc1-c1csc(-c2cc(F)c(O)c(F)c2F)n1 [Example 165] | 92 | 110 |  | 
COC(=O)NCc1nc(C)c(-c2csc(-c3ccc4[nH]nnc4c3F)n2)s1 [Example 156] | 200 | 150 |  | 
Cc1nc(CNc2cccnn2)sc1-c1cccc(-c2cc(F)c3nn[nH]c3c2F)n1 [Example 95] | 25 | 25 |  | 
Cc1nc(COCC(=O)N(C)C)sc1-c1cccc(-c2cc(F)c3nn[nH]c3c2)n1 [Example 163] | 170 | 260 |  | 
COC(=O)NCc1nc(C)c(-c2csc(-c3ccc(-c4nnn[nH]4)c(O)c3)n2)s1 [Example 213] | 160 | 60 |  | 
Cc1nc(COc2ncccn2)sc1-c1cccc(-c2ccc3nn[nH]c3c2)n1 [Example 131] | 510 | 570 |  | 
COC(=O)NCc1nc(C)c(-c2csc(-c3cc(F)c(O)c(F)c3F)n2)s1 [Example 187] | 300 | 480 |  | 
COC(=O)NCc1nc(C)c(-c2csc(-c3cc(F)c(O)c(F)c3)n2)s1 [Example 191] | 1100 | 1600 |  | 
Cc1nc(COc2ncccn2)sc1-c1cccc(-c2cc(F)c(O)c(F)c2F)c1 [Example 148] | 1200 | 250 |  | 
Cc1nc(COc2ncccn2)sc1-c1cccc(-c2ccc3nn[nH]c3c2)n1 [compound 14] |  |  | 570 | 1010
Cc1nc(COc2ccccn2)sc1-c1csc(-c2cc3nn[nH]c3c(F)c2F)n1 [Example 176] | 3400 | 20 |  | 
Cc1nc(CNC(=O)c2cccnn2)sc1-c1csc(-c2cc(F)c(O)c(F)c2F)n1 [Example 186] | 240 | 350 |  | 
COC(=O)NCc1nc(C)c(-c2csc(-c3ccc(C(=O)NS(C)(=O)=O)cc3)n2)s1 [Example 208] | 3100 | 16000 |  | 
COC(=O)NCc1nc(C)c(-c2csc(-c3ccc(-c4nnn[nH]4)cc3)n2)s1 [Example 205] | 340 | 440 |  | 
Cc1nc(COC(=O)N(C)C)sc1-c1csc(-c2cc(F)c(O)c(F)c2F)n1 [Example 137] | 230 | 200 |  | 
Cc1nc(CNc2ncccn2)sc1-c1cccc(-c2cc(F)c3nn[nH]c3c2)n1 [Example 155] | 44 | 40 |  | 
Cc1nc(COCC(=O)N(C)C)sc1-c1cccc(-c2cc(F)c(O)c(F)c2F)n1 [Example 170] | 1100 | 880 |  | 

Compound | IC50 (hBPGM; [2]) [nM] | EC50 [1, 3] [nM] | EC50 [1, 4] [nM] | IC50 (hBPGM; Table 3, read-out: hBPGM Synthase IC50) [nM]
Cc1nc(COc2ncc(C(=O)O)cn2)sc1-c1cccc(-c2cc(F)c3nn[nH]c3c2F)n1 [Example 135] | 160 | 240 |  | 
Cc1nc(COc2ncccn2)sc1-c1cccc(-c2cc[n+]([O-])cc2)n1 [Example 139] | > 25000 | > 25000 |  | 
Cc1nc(COC(=O)N(C)C)sc1-c1cccc(-c2cc(F)c3nn[nH]c3c2)n1 [Example 167] | 130 | 75 |  | 
Cc1ccnc(OCc2nc(C)c(-c3cccc(-c4cc(F)c5nn[nH]c5c4F)n3)s2)n1 [Example 130] | 15 | 10000 |  | 
Cc1nc(COC(=O)N(C)C)sc1-c1cccc(-c2cc(F)c3nn[nH]c3c2F)n1 [Example 125] | 23 | 2700 |  | 
Cc1nc(COc2ncccn2)sc1-c1cccc(-c2ccc(C(=O)NS(=O)(=O)c3ccccc3)cc2)n1 [Example 157] | 170 | 240 |  | 
CCc1cnc(OCc2nc(C)c(-c3cccc(-c4cc(F)c5nn[nH]c5c4F)n3)s2)nc1 [Example 144] | 330 | 40 |  | 
Cc1nc(CNc2ncccn2)sc1-c1cccc(-c2cc(F)c(O)c(F)c2F)n1 [Example 168] | 220 | 130 |  | 
Cc1ccnc(OCc2nc(C)c(-c3cccc(-c4cc(F)c5nn[nH]c5c4)n3)s2)n1 [Example 153] | 81 | 60 |  | 
Cc1nc(COc2cccnn2)sc1-c1csc(-c2cc(F)c3[nH]nnc3c2)n1 [compound 7] |  | 55 | 55 | 
COC(=O)NCc1nc(C)c(-c2csc(-c3cc(O)c(C#N)cc3F)c2)s1 [Example 189] | 980 | 310 |  | 
Cc1nc(COc2ncccn2)sc1-c1cccc(-c2cc(F)c3nnn(C)c3c2)n1 [Example 150] | > 99000 |  |  | 
Cc1nc(COc2ncccn2)sc1-c1cccc(-c2nnn[nH]2)n1 [Example 73] | > 25000 |  |  | 
Cc1nc(COc2ncccn2)sc1-c1ccnc(-c2cc(F)c3nn[nH]c3c2F)n1 [Example 220] | 27 |  |  | 
Cc1nc(COc2ncccn2)sc1-c1cccc(Nc2ccc3[nH]nnc3c2)n1 [Example 229] | > 25000 |  |  | 
Cc1nc(COC(C)C)sc1-c1cccc(-c2cc(F)c3nn[nH]c3c2F)n1 [Example 236] | 110 |  |  | 
COCC1CCCN1C(=O)OCc1nc(C)c(-c2cccc(-c3cc(F)c4nn[nH]c4c3F)n2)s1 (stereo not drawn) [Example 40] | 44 |  |  | 
Cc1nc(CNC(=O)c2cccnn2)sc1-c1nc(-c2cc(F)c3nn[nH]c3c2F)cs1 [Example 43] | 14 |  |  | 
Cc1nc(CNc2ncccn2)sc1-c1csc(-c2cc(F)c3[nH]nnc3c2F)n1 [Example 51] | 280 |  |  | 
Cc1nc(NC(=O)OC(C)(C)C)sc1-c1cccc(-c2cc(F)c3[nH]nnc3c2F)n1 [Example 30] | 200 |  |  | 
Cc1nc(COC(=O)N(C)C)sc1-c1csc(-c2cc(F)c3[nH]nnc3c2)n1 [Example 109] | 160 |  |  | 
Cc1nc(COc2ncccn2)sc1-c1cccc(-c2ccc3c(c2)C(=O)NC3=O)n1 [Example 132] | 8100 |  |  | 
Cc1nc(CNC(=O)N2CCN(C)CC2)sc1-c1csc(-c2cc(F)c(O)c(F)c2F)n1 [Example 108] | 14000 |  |  | 
Cc1nc(COCC(=O)N(C)C)sc1-c1cccc(-c2cc(F)c3nn[nH]c3c2F)n1 [Example 64] | 43 |  |  | 
Cc1nc(CN(C)C)sc1-c1cccc(-c2cc(F)c3nn[nH]c3c2F)n1 [Example 52] | 390 |  |  | 
